What was measured:
[1] = biological target: 5-HT4 receptor (Cavia porcellus, UniProt O70528); assay: Guinea pig colon: 5-HT-evoked contraction of longitudinal muscle-myenteric plexus preparations
Method: In some experiments, this tissue was dosed alternately with an approximately equi-effective concentration of the nicotine receptor stimulant, dimethylphenylpiperazinium (DMPP).

[2] = system: large bowel motility and fluid secretion; assay: Faecal pellet output and fluid content in conscious fed mice (normal and 5-HTP-treated); format: in vivo, mouse
Description: 2) Antagonism in Conscious Fed Mice
A model was developed to examine the effect of 5-HT4 receptor antagonists on large bowel motility (faecal pellet output, FPO) and fluid secretion (pellet wet/dry weight) during `fed` conditions. The antagonists are studied in normal mice (to determine adverse effects, eg constipation)and in mice with functional diarrhoea caused by 5-HTP [Banner S E, Smith M I, Bywater D and Sanger G J (1993), Br J Pharmacol, 110, 17 P, and Banner S E, Smith M I and Sanger G J (1993) Br J Pharmacol; 110, 135 P]. Faecal pellets were collected at 10 min intervals so that their number and wet/dry weights could be determined.

[3] = biological target: piglet hippocampal 5-HT4 receptors (Sus scrofa, UniProt Q6Q253); assay: Binding to piglet hippocampal 5-HT4 receptors (125I-SB-207710); details: for pKi: inhibition of 125I-SB-207710 binding in hippocampus
Chain of piglet hippocampal 5-HT4 receptors (Q6Q253 1-402): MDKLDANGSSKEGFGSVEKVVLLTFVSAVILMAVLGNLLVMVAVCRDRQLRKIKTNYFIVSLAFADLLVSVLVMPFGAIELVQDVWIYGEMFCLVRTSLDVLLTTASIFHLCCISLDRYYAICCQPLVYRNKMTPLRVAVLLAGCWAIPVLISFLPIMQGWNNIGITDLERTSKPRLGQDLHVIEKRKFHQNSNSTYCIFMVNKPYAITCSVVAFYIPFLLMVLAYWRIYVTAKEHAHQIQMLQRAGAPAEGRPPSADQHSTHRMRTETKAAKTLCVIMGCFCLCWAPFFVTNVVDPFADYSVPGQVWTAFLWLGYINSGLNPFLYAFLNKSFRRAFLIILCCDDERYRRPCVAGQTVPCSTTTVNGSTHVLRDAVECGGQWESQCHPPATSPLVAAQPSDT

Chain of 5-HT4 receptor (O70528 whole entry): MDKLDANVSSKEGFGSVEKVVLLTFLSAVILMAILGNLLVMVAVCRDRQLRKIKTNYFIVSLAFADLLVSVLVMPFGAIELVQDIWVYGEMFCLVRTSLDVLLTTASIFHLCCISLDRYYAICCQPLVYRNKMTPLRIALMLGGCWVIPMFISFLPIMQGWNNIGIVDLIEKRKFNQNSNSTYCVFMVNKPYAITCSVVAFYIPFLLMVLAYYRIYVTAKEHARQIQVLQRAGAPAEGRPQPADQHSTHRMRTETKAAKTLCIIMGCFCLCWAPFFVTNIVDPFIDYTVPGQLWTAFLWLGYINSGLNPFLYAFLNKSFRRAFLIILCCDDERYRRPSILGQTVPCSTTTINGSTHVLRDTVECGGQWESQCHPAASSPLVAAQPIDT

In the case of CCCCN1CCC(COC(=O)c2c3n(c4ccccc24)CCCS3)CC1 [E8, (1-^n Butyl-4-piperidyl)methyl-3,4-dihydro-2 H-[1,3]thiazino[3,2-a]indole-10-Carboxylate], the “5-HT4 receptor antagonist activity (in words)” value ([1]; Y is O) is reported as “particularly good activity”.
For NC(Cc1c[nH]c2ccc(O)cc12)C(=O)O (stereo not drawn) [5-HTP, reference compound], the “effect of 5-HTP on FPO” value ([2]; 10 mgkg^-1 s.c.) was “increased FPO above control levels”, the “time of maximum effect of 5-HTP” value ([2]; 10 mgkg^-1 s.c.) was 20 min and the “effect of 5-HTP on faecal output” value ([2]; higher doses than 10 mg kg^-1 s.c.) was “evoked watery diarrhoea and unformed faecal output”.
In the case of CCCCN1CCC(COC(=O)c2c3n(c4ccccc24)CCO3)CC1 [E6, (1-^n Butyl-4-piperidyl)methyl-2,3-dihydrooxazolo[3,2-a]indole-9-Carboxylate], the “5-HT4 receptor antagonist activity (in words)” value ([1]; Y is O) is reported as “particularly good activity”.
O=C(OCC1CCN(Cc2ccccc2)CC1)c1c2n(c3ccccc13)CCCO2 [E15, (1-Benzyl-4-piperidyl)methyl-3,4-dihydro-2 H-[1,3]oxazino[3,2-a]indole-10-Carboxylate] was tested, and the “5-HT4 receptor antagonist activity (in words)” value ([1]; Y is O) was “particularly good activity”.
For O=C(NCC1CCN(CCCOc2ccccc2)CC1)c1c2n(c3ccccc13)CCCO2 [E47, N-[(1-(3-Phenoxypropyl)-4-piperidinyl)methyl] 3,4-dihydro-2 H-[1,3]oxazino[3,2-a]indole-10-Carboxamide], the “5-HT4 receptor antagonist activity (in words)” value ([1]; Y is NH) was “particularly good activity”.
Work on NCCc1c[nH]c2ccc(O)cc12 [5-HT, 5-hydroxytryptamine] yielded a pKi [3] of 6.6±0.1.
In the case of O=C(NCC1CCN(Cc2ccccc2)CC1)c1c2n(c3ccccc13)CCCO2 [E20, N-[(1-Benzyl-4-piperidyl)methy] 3,4-dihydro-2 H-[1,3]oxazino[3,2-a]indole-10-Carboxamide], the “5-HT4 receptor antagonist activity (in words)” value ([1]; Y is NH) is reported as “particularly good activity”.
With CCCCN1CCC(CNC(=O)c2c3n(c4ccccc24)CCCO3)CC1 [E3, N-[(1-^n Butyl-4-piperidyl)methyl]-3,4-dihydro-2 H-[1,3]oxazino[3,2-a]indole-10-Carboxamide] the “5-HT4 receptor antagonist activity (in words)” value ([1]; Y is NH) was “particularly good activity”.
In the case of CCCCN1CCC(COC(=O)c2cc(I)c(N)c3c2OCCO3)CC1 [SB-207710], the Bmax ([3]; piglet hippocampal membranes, n=4) is reported as 16±3 fmol/mg protein.
With O=C(OCC1CCN2CCCCC2C1)c1c2n(c3ccccc13)CCCO2 (stereo not drawn) [E2, eq-Quinolizidin-2-ylmethyl-3,4-dihydro-2 H-[1,3]oxazino[3,2-a]indole-10-Carboxylate] the “5-HT4 receptor antagonist activity (in words)” value ([1]; Y is O) was “particularly good activity”.
In the case of O=C(OCCN1CCCCC1)c1c2n(c3ccccc13)CCCO2 [E4, 2-(1-Piperidyl)ethyl 3,4-dihydro-2 H-[1,3]oxazino[3,2-a]indole-10-Carboxylate], the “5-HT4 receptor antagonist activity (in words)” value ([1]; Y is O) is reported as “particularly good activity”.
In the case of O=C(NCC1CCN(CC2CCCCC2)CC1)c1c2n(c3ccccc13)CCCO2 [E23, N-[(1-Cyclohexylmethyl-4-piperidyl)methyl] 3,4-dihydro-2 H-[1,3]oxazino[3,2-a]indole-10-Carboxamide], the “5-HT4 receptor antagonist activity (in words)” value ([1]; Y is NH) is reported as “particularly good activity”.
In the case of CCCCN1CCC(COC(=O)c2c3n(c4ccccc24)CCCO3)CC1 [E1, (1-^n Butyl-4-piperidyl)methyl-3,4-dihydro-2 H-[1,3]oxazino[3,2-a]indole-10-Carboxylate], the “5-HT4 receptor antagonist activity (in words)” value ([1]; Y is O) is reported as “particularly good activity”.
CCCCN1CCC(CNC(=O)c2c3n(c4ccc(F)cc24)CCCO3)CC1 [E28, N-[(1-^n Butyl-4-piperidyl)methyl] 8-fluoro-3,4-dihydro-2 H-[1,3]oxazino[3,2-a]indole-10-Carboxamide] was tested, and the “5-HT4 receptor antagonist activity (in words)” value ([1]; Y is NH) was “particularly good activity”.
In the case of CN1C2CCCC1CC(NC(=O)c1nn(C)c3ccccc13)C2 (stereo not drawn) [granisetron], the pKi [3] is reported as “below 5”.
For CCCCN1CCC(COC(=O)c2c3n(c4ccc(F)cc24)CCCO3)CC1 [E27, (1-^n Butyl-4-piperidyl)methyl 8-fluoro-3,4-dihydro-2 H-[1,3]oxazino[3,2-a]indole-10-Carboxylate], the “5-HT4 receptor antagonist activity (in words)” value ([1]; Y is O) was “particularly good activity”.

From US5852014A, “Condensed indole derivatives as 5HT4 -receptor antagonists” (SmithKline Beecham p.l.c., priority 1992, dated 1998)
